Legend:
[1] = system: Tetranychus urticae (Two-Spotted Spider Mite); assay: Tetranychus urticae (Two-Spotted Spider Mite): sprayed bean leaf discs, mobile stages mortality after 8 days; type: in vivo
From the text: Tetranychus urticae (Two-Spotted Spider Mite)
Bean leaf discs on agar in 24-well microtiter plates are sprayed with test solutions (DMSO). After drying, the leaf discs are infested with mite populations of mixed ages. 8 days later, discs are checked for mobile stages (I removed “mixed population”) mortality.
(§1) Columns 4 and 5 show the control observed from the compounds alone. […] When a compound applied alone gave no control at a particular rate, it is assumed that lower rates of that compound alone also give no control. DMET=deltamethrin, SPAT=spirotetramat, IMID=imidacloprid, B15=compound 15 in Table B.

[2] = system: Heliothis virescens (Tobacco Budworm); assay: Heliothis virescens (Tobacco Budworm): eggs on artificial diet in 24-well plate, larval mortality after 4 days; type: in vivo
Protocol: Heliothis virescens (Tobacco Budworm)
Eggs (0-24 h old) are placed in 24-well microtiter plate on artificial diet and treated with test solutions (DMSO) by pipetting. After an incubation period of 4 days, samples are checked for larval mortality.
as §1

`O=[N+]([O-])NC1=NCCN1Cc1ccc(Cl)nc1` [IMID, imidacloprid] was tested. Which “IMID observed control %” value ([1]; IMID alone 12.5 ppm) did it give?
The value was 0%.

And the “IMID observed control %” value ([1]; IMID alone 25 ppm)?
Its value is 0%.

What about the “IMID observed control %” value ([1]; IMID alone 50 ppm) of the same compound?
The value was 0%.

And the “IMID observed control %” value ([1]; IMID alone 100 ppm)?
Its value is 0%.

What about the “IMID observed control %” value ([1]; IMID alone 200 ppm) of the same compound?
The value was 0%.

And the “IMID observed control %” value ([1]; IMID alone 400 ppm)?
The value was 0%.

For `CC(NC(=O)C1CC1)c1ccc(N2CCC(c3cc(C(F)(F)F)cc(C(F)(F)F)c3)(C(F)(F)F)C2)cc1` (mixture of isomers) [Compound B15], which “B15 observed control %” value ([1]; B15 alone 0.187 ppm) is on record?
The value was 0%.

What about the “B15 observed control %” value ([1]; B15 alone 0.375 ppm) of the same compound?
Its value is 0%.

And the “B15 observed control %” value ([1]; B15 alone 0.75 ppm)?
Its value is 0%.

What about the “B15 observed control %” value ([1]; B15 alone 1.5 ppm) of the same compound?
Its value is 30%.

What about the “B15 observed control %” value ([2]; B15 alone 0.05 ppm (Table 2)) of the same compound?
The value was 0%.

What about the “B15 observed control %” value ([2]; B15 alone 0.1 ppm (Table 1)) of the same compound?
Its value is 55%.

And the “B15 observed control %” value ([2]; B15 alone 0.1 ppm (Table 2))?
The value was 0%.

And the “B15 observed control %” value ([2]; B15 alone 0.2 ppm (Table 1))?
Its value is 75%.

And the “B15 observed control %” value ([2]; B15 alone 0.2 ppm (Table 2))?
The value was 85%.

What about the “B15 observed control %” value ([2]; B15 alone 0.4 ppm (Table 1)) of the same compound?
The value was 75%.

What about the “B15 observed control %” value ([2]; B15 alone 0.4 ppm (Table 2)) of the same compound?
The value was 90%.

And the “B15 observed control %” value ([2]; B15 alone 0.8 ppm (Table 1))?
Its value is 85%.

What about the “B15 observed control %” value ([2]; B15 alone 0.8 ppm (Table 2)) of the same compound?
The value was 90%.

And the “B15 observed control %” value ([2]; B15 alone 1.6 ppm (Table 1))?
Its value is 95%.

How did the “SPAT observed control %” value ([2]; SPAT alone 6.25 ppm) turn out when `CCOC(=O)OC1=C(c2cc(C)ccc2C)C(=O)N[C@]12CC[C@@H](OC)CC2` [SPAT, spirotetramat] was run?
Its value is 0%.

And the “SPAT observed control %” value ([2]; SPAT alone 12.5 ppm)?
The value was 0%.

What about the “SPAT observed control %” value ([2]; SPAT alone 25 ppm) of the same compound?
The value was 0%.

And the “SPAT observed control %” value ([2]; SPAT alone 50 ppm)?
The value was 0%.

And the “SPAT observed control %” value ([2]; SPAT alone 100 ppm)?
Its value is 0%.

What about the “SPAT observed control %” value ([2]; SPAT alone 200 ppm) of the same compound?
The value was 55%.

What does the source list for `CC1(C)[C@H](C(=O)O[C@H](C#N)c2cccc(Oc3ccccc3)c2)[C@@H]1C=C(Br)Br` [DMET, deltamethrin]?
DMET observed control % ([2]; DMET alone 0.0062 ppm): 0%; DMET observed control % ([2]; DMET alone 0.0125 ppm): 0%; DMET observed control % ([2]; DMET alone 0.025 ppm): 0%; DMET observed control % ([2]; DMET alone 0.05 ppm): 0%; DMET observed control % ([2]; DMET alone 0.1 ppm): 0%; DMET observed control % ([2]; DMET alone 0.2 ppm): 0%; DMET observed control % ([2]; DMET alone 0.4 ppm): 0%; DMET observed control % ([2]; DMET alone 0.8 ppm): 0%
